Assay results published in publication PMC4176484, “Comparative study of four immortalized human brain capillary endothelial cell lines, hCMEC/D3, hBMEC, TY10, and BB19, and optimization of culture conditions, for an in vitro blood–brain barrier model for drug permeability studies” (Fluids and Barriers of the CNS, 2013).

Tests used:
hBMEC mono-cultures = assay: Maximal TEER of hBMEC mono-cultures under different culture conditions, CellZscope; details: collagen type I coating
Method: For the screening of 24-well tissue culture inserts from different providers (Corning®, Greiner Bio-One®, BD Falcon®, Millipore®, Nunc®, and Brand®), each endothelial cell line (hCMEC/D3 (cultured with growth medium 20% FBS), hBMEC, TY10, and BB19) was seeded separately on the apical side of the filter membrane at a density varying between 1.5 × 10^4 and 17 × 10^4 cells/cm^2. Prior to seeding, the membranes were coated with rat-tail collagen type I. The tissue culture inserts were placed into a 24-well cell module of a CellZscope system (NanoAnalytics, Münster, Germany) [30] which was placed inside an incubator (37°C and 5% CO2). For in vitro models with TY10 cells, further experiments were performed for which the CellZscope system was first placed at 33°C (5% CO2) for 2 days and subsequently transferred to 37°C (5% CO2). The medium was refreshed every 2–4 days. TEER values were recorded in real-time every hour. TEER values for cell layers, expressed in Ωcm^2, were obtained by subtracting the TEER of a coated control insert without cells from a coated insert with cells. After placing the CellZscope system into the incubator, the cell module needs at least 6 h to reach 37°C. Since TEER values are highly temperature sensitive [36], recorded TEER values in this time period were not considered to be valid and are not reported. For each in vitro experiment, 2 or 3 replicates were measured. Results are expressed as means ± S.E.M. In addition to TEER values, the CellZscope system monitors the cell layer capacitance (CCL) which reflects the membrane surface area. CCL values in the range of 0.5-5.0 μF/cm^2 indicate cell confluency and validate TEER values [37, 38]. All reported TEER values in the result section belong to a CCL within this range, if not reported otherwise.

[1] = Paracellular permeability (Papp) of marker compounds through TY10 mono-cultures on 24-well inserts; assay type: in vitro ADME; details: human, pH 7.4, TY10 monolayers (33°C 2 days, then 37°C 2 days), Greiner Bio-one transparent PET 3.0 μm inserts, mean ± S.E.M.
Method: (§1) To further assess tight junction (TJ) integrity of endothelial cell layers, paracellular permeabilities of Na-F (MW 376.27) and LY (MW 550.39) were measured. These two fluorescent, non-P-glycoprotein (P-gp) substrate molecules have low BBB penetration and are widely used as barrier integrity markers for in vitro models. To obtain comparative data, hCMEC/D3 cells, hBMEC cells, and TY10 cells were seeded onto 24-well tissue culture inserts (Greiner Bio-one®, transparent polyethylene terephthalate (PET) membrane, 3.0 μm pore size, 0.6 × 10^6 pores/cm^2) and incubated at 37°C (5% CO2) (except TY10 cells) inside the CellZscope cell module (Figure 2). […]
TEER and CCL values before and after the assays were monitored continuously for integrity control. […]
(§2) For the permeability assay, tissue culture inserts were transferred into a 24-well plate containing 700 μL of pre-warmed (37°C) Ringer HEPES buffer (150 mM NaCl, 2.2 mM CaCl2, 0.2 mM MgCl2, 5.2 mM KCl, 2.8 mM glucose, 5 mM HEPES, and 6 mM NaHCO3, pH 7.4) in each well (basolateral compartment). […] Quantification of fluorescence (Na-F: excitation 490 nm, emission 514 nm; LY: excitation 430 nm, emission 535 nm) was carried out using a Chameleon microplate reader (Hidex, Turku, Finland). The apparent permeability coefficient (Papp) for Na-F and LY was calculated in centimeters/second (cm/s) according to the equation: […]

[2] = Paracellular permeability (Papp) of marker compounds through hCMEC/D3 mono-cultures on 24-well inserts; assay type: in vitro ADME; details: human, Greiner Bio-one transparent PET 3.0 μm inserts, mean ± S.E.M.
Method: (§3) To further assess tight junction (TJ) integrity of endothelial cell layers, paracellular permeabilities of Na-F (MW 376.27) and LY (MW 550.39) were measured. These two fluorescent, non-P-glycoprotein (P-gp) substrate molecules have low BBB penetration and are widely used as barrier integrity markers for in vitro models. To obtain comparative data, hCMEC/D3 cells, hBMEC cells, and TY10 cells were seeded onto 24-well tissue culture inserts (Greiner Bio-one®, transparent polyethylene terephthalate (PET) membrane, 3.0 μm pore size, 0.6 × 10^6 pores/cm^2) and incubated at 37°C (5% CO2) (except TY10 cells) inside the CellZscope cell module (Figure 2). For TY10, the CellZscope system was first put at 33°C (5% CO2) for 2 days and was thereafter transferred to 37°C (5% CO2) for 2 days prior to the permeability assay (Figure 3D). Cell seeding density for hCMEC/D3 and hBMEC was 6.0 × 10^4 cells/cm^2, and for TY10 it was 3.0 × 10^4 cells/cm^2. For hBMEC, contact co-culture models with SVG-A cells (9.0 × 10^4 cells/cm^2) or HBPCT cells (6.0 × 10^4 cells/cm^2) on the basal side of the coated filter membranes were tested.
(§4) TEER and CCL values before and after the assays were monitored continuously for integrity control. All experiments for Na-F permeability were carried out at the time indicated with a black arrow in Figures 3A-D. For LY permeability assessment, TEER values were in the same range (graphs not shown). BB19 cells were not included in this permeability study since TEER values were extremely low.
(§5) For the permeability assay, tissue culture inserts were transferred into a 24-well plate containing 700 μL of pre-warmed (37°C) Ringer HEPES buffer (150 mM NaCl, 2.2 mM CaCl2, 0.2 mM MgCl2, 5.2 mM KCl, 2.8 mM glucose, 5 mM HEPES, and 6 mM NaHCO3, pH 7.4) in each well (basolateral compartment). Medium in inserts (apical compartment) was then replaced with 300 μL of a pre-warmed (37°C) working solution containing Na-F or LY at 10 μg/mL in Ringer HEPES buffer. The 24-well plate was incubated at 37°C on an orbital shaker (ELMI DTS-2, Riga, Latvia) with moderate speed (100 rpm) and aliquots of 250 μL of both apical and basolateral compartments were collected after 1 h. All experiments were performed at least in triplicate. Quantification of fluorescence (Na-F: excitation 490 nm, emission 514 nm; LY: excitation 430 nm, emission 535 nm) was carried out using a Chameleon microplate reader (Hidex, Turku, Finland). The apparent permeability coefficient (Papp) for Na-F and LY was calculated in centimeters/second (cm/s) according to the equation: […]

[3] = Paracellular permeability (Papp) of marker compounds through hBMEC mono-cultures on 24-well inserts; assay type: in vitro ADME; details: human, mean ± S.E.M.
Method: as §3
as §4, with “BB19 cells were not included in this permeability study since TEER values were extremely low.” left out
as §2

[4] = Recovery (mass balance) in permeability assays through mono-cultures; assay type: in vitro ADME; details: human, pH 7.4; all mono-culture permeability experiments (hCMEC/D3, hBMEC, TY10)
Method: as §5, with “All experiments were performed at least in triplicate.” left out
(§6) Recovery (mass balance) of Na-F and LY was calculated with the following equation: […]
[43] where CAf and CBf are the final concentrations of the compound in the apical and basolateral compartment, respectively, CA0 is the initial concentration in the apical compartment, and VA and VB are the volumes in the apical and basolateral compartments, respectively. All results are expressed as means ± S.E.M.

[5] = Paracellular permeability (Papp) through hBMEC contact co-culture with HBPCT pericytes; assay type: in vitro ADME; details: human, mean ± S.E.M.
Method: as §1, §2

[6] = Recovery (mass balance) in permeability assays through hBMEC mono-cultures and contact co-cultures; assay type: in vitro ADME; details: human, pH 7.4; all hBMEC mono-culture / co-culture experiments with SVG-A or HBPCT
Method: as §1, §2, §6

[7] = Paracellular permeability (Papp) through hBMEC contact co-culture with SVG-A astrocytes; assay type: in vitro ADME; details: human, mean ± S.E.M.
Method: as §1, §2

[8] = pH 7.4, hCMEC/D3 cultivated with growth medium containing 20% FBS
[9] = pH 7.4, hCMEC/D3 grown with initial medium containing 5% FBS
[10] = pH 7.4, hBMEC mono-culture, growth medium 20% FBS, Greiner Bio-one transparent PET 3.0 μm inserts, 10 μg/mL apical, 1 h, 37°C

In the case of `C[C@]12CCC(=O)C=C1CC[C@@H]1[C@@H]2[C@@H](O)C[C@@]2(C)[C@H]1CC[C@]2(O)C(=O)CO` [HC, hydrocortisone], the “Mean max. TEER ± S.E.M.” value (hBMEC mono-cultures; growth medium with additional HC 500 nM for 3 days (only apical), 4.5 × 10^4 cells/cm^2, at 3.19 d) is reported as 43.2 (± 4.27) Ωcm^2 and the “Mean max. TEER ± S.E.M.” value (hBMEC mono-cultures; growth medium with additional HC 1500 nM for 3 days (only apical), 4.5 × 10^4 cells/cm^2, at 3.19 d) is reported as 40.4 (± 0.646) Ωcm^2.
`C=CS(=O)(=O)c1cccc(N2C(=O)c3cc(S(=O)(=O)[O-])cc4c(N)c(S(=O)(=O)[O-])cc(c34)C2=O)c1.[Li+].[Li+]` [LY, Lucifer Yellow VS dilithium salt] gave a Papp at 1 h, 10 μg/mL [1] of 9.68 ± 0.413 ×10⁻⁶ cm/s, a Papp at 1 h, 10 μg/mL [2, 8] of 11.7 ± 0.957 ×10⁻⁶ cm/s and a Papp at 1 h, 10 μg/mL [2, 9] of 10 ± 0.498 ×10⁻⁶ cm/s. It also gave a Papp at 1 h, 10 μg/mL [3, 10] of 5.39 ± 0.364 ×10⁻⁶ cm/s and a recovery at 1 h, 10 μg/mL [4] of 66 to 79%.
Compound `O=C([O-])c1ccccc1-c1c2ccc(=O)cc-2oc2cc([O-])ccc12.[Na+].[Na+]` [Na-F, sodium fluorescein] has a Papp at 1 h, 10 μg/mL ([5]; pH 7.4, hBMEC co-cultured with HBPCT, medium deprived of growth factors, n = 3) of 7.22 ± 0.455 ×10⁻⁶ cm/s, a Papp at 1 h, 10 μg/mL ([5]; pH 7.4, hBMEC contact co-culture with HBPCT, medium with growth factors) of 8.26 ± 0.893 ×10⁻⁶ cm/s and a recovery at 1 h, 10 μg/mL [6] of 98 to 102%. It also gave a Papp at 1 h, 10 μg/mL [1] of 12.4 ± 0.155 ×10⁻⁶ cm/s, a Papp at 1 h, 10 μg/mL ([7]; pH 7.4, hBMEC co-cultured with SVG-A, medium deprived of growth factors, n = 3) of 6.88 ± 0.516 ×10⁻⁶ cm/s and a Papp at 1 h, 10 μg/mL ([7]; pH 7.4, hBMEC contact co-culture with SVG-A, medium with growth factors) of 7.43 ± 0.2 ×10⁻⁶ cm/s. It also gave a Papp at 1 h, 10 μg/mL [2, 8] of 13.4 ± 0.484 ×10⁻⁶ cm/s, a Papp at 1 h, 10 μg/mL [2, 9] of 12.5 ± 0.326 ×10⁻⁶ cm/s and a Papp at 1 h, 10 μg/mL [3, 10] of 5.08 ± 0.22 ×10⁻⁶ cm/s. The Papp at 1 h, 10 μg/mL ([3]; pH 7.4, hBMEC monolayers cultured without growth factors, n = 3) was 5.11 ± 0.0487 ×10⁻⁶ cm/s and the recovery at 1 h, 10 μg/mL [4] was 75 to 87%.
In the case of `C[C@@H]1C[C@H]2[C@@H]3CCC4=CC(=O)C=C[C@]4(C)[C@@]3(F)[C@@H](O)C[C@]2(C)[C@@]1(O)C(=O)CO` [dexamethasone], the “Mean max. TEER ± S.E.M.” value (hBMEC mono-cultures; growth medium with dexamethasone 500 nM for 3 days (only apical), 9.0 × 10^4 cells/cm^2, at 4.15 d) is reported as 35.9 (± 0.338) Ωcm^2 and the “Mean max. TEER ± S.E.M.” value (hBMEC mono-cultures; growth medium with dexamethasone 1000 nM for 3 days (only apical), 9.0 × 10^4 cells/cm^2, at 4.15 d) is reported as 38.0 (± 1.26) Ωcm^2.
In the case of human epidermal growth factor [hEGF], the “Mean max. TEER ± S.E.M.” value (hBMEC mono-cultures; growth medium with additional hEGF 50 ng/mL for 3 days (only apical), 9.0 × 10^4 cells/cm^2, at 4.15 d) is reported as 36.4 (± 0.902) Ωcm^2 and the “Mean max. TEER ± S.E.M.” value (hBMEC mono-cultures; growth medium with additional hEGF 100 ng/mL for 3 days (only apical), 9.0 × 10^4 cells/cm^2, at 4.15 d) is reported as 40.0 (± 1.94) Ωcm^2.
